Results on one compound are retold here after patent US12251478B2 (Arizona Board of Regents on behalf of Arizona State …, priority 2019, dated 2025).

For one assay, the system named is acute wounds. As to the kind of experiment: Acute wound healing, full-thickness punch biopsy wound model in immunocompetent mice. The format is in vivo, BALB/c mice. From the text: (§1) The histamine composition was applied topically on 5-millimeter mid-dorsal full thickness wounds and covered with either Tegaderm™ (transparent film dressing) or a silk dressing and irradiated with 800 nm near infrared laser (NIR) light.
(§2) Post-wounding, the mice were recovered for 7-11 days and their healing kinetics were monitored for different treatment groups.
(§3) An example protocol is as follows. Full-thickness punch biopsy dorsal wounds were created on mice, bioactive wound dressing applied, and the wounds were splinted to prevent wound closure by contraction. Either immunomodulator molecule was delivered on the day of wounding or a later time-point to accelerate wound healing.
FIG. 1 includes images of a wound closure procedure, which was performed with BALB/c mice (about 8-10 weeks old), with a wound size of about 5 mm (n=10), and with a histamine concentration of 3.4 mg/kg per mouse.
Additionally, Elastin-Like Polypeptide (ELP) was used alone as a control. We tested whether ELP in itself influenced healing efficacy. These studies were performed in BALB/c mice (acute wounds), 5 mm wounds, ELP concentration 2 μM (per wound/mouse). Histamine and GFNPs concentration were 3.4 mg/kg and 2 μM, respectively. Histamine and GFNPs concentration were same as previous reported studies. The GFNPs used in this study is SDF1-ELP.
A histamine double dosage control (e.g., two sequential dosage of histamine) was investigated. […] These studies were performed in BALB/c mice (acute wounds) and in 5 mm wounds. Histamine and GFNPs concentration were 3.4 mg/kg and 2 μM, respectively. Histamine and GFNPs concentration were same as previous reported studies. The GFNPs used in this study is SDF1-ELP. We delivered histamine in the following manner: Histamine along with silk fibroin dressing on Day 0 post wounding (like previous studies); Histamine delivered on Day 3 post wounding. Wounds were treated with PBS and silk fibroin film alone on Day 0; Histamine along with silk fibroin on Day 0 post wounding+ second dose of histamine on Day 3 post wounding delivered using subcutaneous injection; and Histamine along with silk fibroin on Day 0 post wounding+ GFNPs delivered sequentially on Day 3 post wounding.

The test system of assay [1] is acute and slow healing diabetic wounds. As to the kind of experiment: Full-thickness punch biopsy wound model, statements covering acute and diabetic wounds together. The format is in vivo, mice. The settings on record: histamine applied topically on 5 mm full thickness wounds, covered with Tegaderm or silk dressing, 800 nm NIR laser.
Description: as §1, §2, §3

With `NCCc1c[nH]cn1` [histamine], in the assay on acute wounds (acute wound model), the contractile activity entry is listed as “higher contractile activity”, the neovascularization result was “higher neovascularization”, the re-epithelialization entry is given as “higher re-epithelialization” and the “reduction of the dermal gap of a wound” value is given as “improves reduction of the dermal gap”. In addition, the resolution of inflammation result in the assay with acute wounds (acute wound model) was “better solution of inflammation”. For the same compound, the “tissue strength / ultimate tensile strength (UTS) of healed skin” value in the assay on acute wounds (acute wounds, day 7, compared between dressings with histamine or saline) is “higher skin strength recovery”. Moreover, in assay [1], the tissue biomechanical recovery entry was “improved tissue biomechanical recovery” and the wound area result is reported as “Significant reduction in wound area”.
